Target: T1, purified human TYMS (Homo sapiens, UniProt P04818)
T1 construct: 6xHis (N); made in house; host or cells: E. coli BL21 (DE3), vector pQE80L-hTYMS
Assay: Tritium-based TYMS catalytic activity assay
Format: biochemical
Procedure: To determine the inhibition of TYMS activity, we utilized a tritium-based TYMS catalytic assay (Figure 1A) to quantify the conversion of dUMP, which is proportional to TYMS activity ([33]). The assay was based on a previously published protocol ([33]) and modified to determine the amount of purified human TYMS (hTYMS) to be used in the conversion of dUMP to dTMP. […]
Tritium based TYMS catalytic activity assay
The catalytic activity of TYMS was determined by measuring the release of [3H] from [5-3H]dUMP (ViTrax, Cat # VT122) resulting from the conversion of dUMP to dTMP as previously described (2, 3).
The reaction conditions were optimized to determine the amount of TYMS protein needed to establish […]
reactions performed without TYMS or without the 5,10-methylene tetrahydrofolate (5,10-mTHF) cofactor (Supplemental Figure 2 and Supplemental methods). Reactions were performed in 50 mM KH2PO4 (Sigma Aldrich, Cat # P0662) at pH 7.2 using 2 µg of purified human TYMS. Reactions were performed in a final volume of 200 µL with 100 mM β-mercaptoethanol (Sigma Aldrich, Cat # M7522), 40 µM dUMP (Sigma Aldrich, Cat # D3876), 100 µM 5,10-mTHF, and the [5-3H]dUMP tracer (ViTrax, Cat # VT122) accounting for 0.06% of the final dUMP concentration in the reaction. The 5,10-mTHF used in the reaction was separately generated from tetrahydrofolic acid (Sigma Aldrich, Cat # T3125) by dissolving the solid in 10 mM KH2PO4 with 143 mM β-mercaptoethanol (1:100 from 14.3 M pure liquid), and 6.35 mM formaldehyde (Sigma Aldrich, Cat # 47608) to yield a 100 mM stock solution of 5,10- mTHF. Reactions were initiated by the addition of the dUMP substrate and 5,10-mTHF cofactor, then incubated at 37 °C for 30 minutes. […]
before the reaction was initiated by the addition of the dUMP substrate and 5,10-mTHF cofactor.
Reactions were terminated by the addition of 100 µL of ice-cold 20% trichloroacetic acid (Sigma Aldrich, Cat # T6399), then excess [5-3H]dUMP was removed by the addition of 200 µL of an albumin-coated activated charcoal solution. The albumin-coated activated charcoal solution was prepared by mixing 10 g of acid- washed activated dextran coated charcoal (Sigma Aldrich, Cat # C6241) with 2.5 g of bovine albumin (Sigma Aldrich, Cat # A1933) in 100 mL of H2O. The suspension was incubated at room temperature for 30 minutes and then centrifuged for 30 minutes at 10,000 x g. Then 150 µL of the supernatant was collected and added to 5 mL of ultima gold liquid scintillation cocktail (Perkin Elmer, Cat # 6013326, lot: 77-19085), and scintillation measurements were perform using a liquid scintillation counter (Beckman Coulter LS6500) to determine [3H]H2O levels in each sample. For all experiments, positive control reactions were performed with no drug representing 100% TYMS activity, and negative

T1 sequence (P04818 whole entry): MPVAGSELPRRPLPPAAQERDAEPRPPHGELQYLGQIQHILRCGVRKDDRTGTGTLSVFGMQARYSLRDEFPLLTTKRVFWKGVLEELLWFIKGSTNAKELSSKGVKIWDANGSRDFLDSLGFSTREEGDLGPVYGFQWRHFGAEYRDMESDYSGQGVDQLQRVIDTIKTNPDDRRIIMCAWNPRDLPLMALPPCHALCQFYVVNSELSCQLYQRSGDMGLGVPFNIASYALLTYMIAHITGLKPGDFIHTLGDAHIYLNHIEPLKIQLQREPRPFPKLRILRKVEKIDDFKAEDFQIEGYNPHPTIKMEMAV

Structure (SMILES): CCc1nc(N)nc(N)c1-c1ccc(N(C)Cc2ccc3c(c2)OCO3)c([N+](=O)[O-])c1 [Compound 19-S7]
- TS activity, screen of 19-S series analogs (250 μM, Figure 6A): inhibited TYMS activity
- TS activity, comparison at decreasing drug concentrations (Figure 6C): greater TYMS inhibition than both MTX and PEM
